Columns and labels:
full-length human TLR8 = biological target: T1, full-length human TLR8 (Homo sapiens, UniProt Q9NR97); assay: Human TLR8 assay (TLR8/NF-κB/SEAPorter HEK 293 cell line); format: cell-based; settings: TLR8 activation, SEAP induction, HEK 293 reporter cells, overnight incubation at 37° C., 0.1% DMSO
T1 construct: a stably co-transfected cell line which expresses full-length human TLR8; host or cells: TLR8/NF-κB/SEAPorter HEK 293 Cell Line
T1 sequence (Q9NR97 27-1041): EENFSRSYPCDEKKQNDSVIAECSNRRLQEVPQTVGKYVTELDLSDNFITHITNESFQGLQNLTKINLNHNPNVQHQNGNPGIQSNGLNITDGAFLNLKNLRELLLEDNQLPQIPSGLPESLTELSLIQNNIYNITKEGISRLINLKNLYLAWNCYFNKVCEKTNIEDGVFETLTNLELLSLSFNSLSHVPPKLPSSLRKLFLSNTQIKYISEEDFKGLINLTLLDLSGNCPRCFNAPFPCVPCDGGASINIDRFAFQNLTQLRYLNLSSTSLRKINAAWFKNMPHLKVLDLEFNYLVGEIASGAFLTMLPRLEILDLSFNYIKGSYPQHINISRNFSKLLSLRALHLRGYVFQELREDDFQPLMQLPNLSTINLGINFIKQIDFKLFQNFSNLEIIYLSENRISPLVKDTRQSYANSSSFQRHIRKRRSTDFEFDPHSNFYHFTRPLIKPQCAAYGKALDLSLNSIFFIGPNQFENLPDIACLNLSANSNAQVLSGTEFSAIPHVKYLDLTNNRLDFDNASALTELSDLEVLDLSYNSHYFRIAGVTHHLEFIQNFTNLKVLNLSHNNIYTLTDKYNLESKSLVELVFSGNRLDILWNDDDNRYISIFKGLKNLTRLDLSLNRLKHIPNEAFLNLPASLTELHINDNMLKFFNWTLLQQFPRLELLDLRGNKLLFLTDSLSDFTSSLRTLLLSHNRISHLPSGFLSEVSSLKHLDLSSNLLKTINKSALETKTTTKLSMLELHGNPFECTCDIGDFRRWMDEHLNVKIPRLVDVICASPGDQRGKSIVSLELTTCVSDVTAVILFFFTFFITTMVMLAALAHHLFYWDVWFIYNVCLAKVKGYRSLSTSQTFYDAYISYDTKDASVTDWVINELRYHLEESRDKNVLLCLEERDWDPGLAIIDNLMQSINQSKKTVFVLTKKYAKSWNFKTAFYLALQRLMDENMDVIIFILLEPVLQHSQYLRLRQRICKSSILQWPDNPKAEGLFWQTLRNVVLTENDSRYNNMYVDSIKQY
From the text: TLR8/NF-κB/SEAPorter™ HEK 293 Cell Line (Imgenex Corporation) is a stably co-transfected cell line which expresses full-length human TLR8 and the secreted alkaline phosphatase (SEAP) reporter gene under the transcriptional control of an NF-κB response element. TLR8 expression in this cell line has been tested by flow cytometry. Transfectants with stable expression were selected using the antibiotic blasticidin and geneticin. TLR signaling leads to the translocation of NF-κB and activation of the promoter results in expression of the SEAP gene. TLR8-specific activation was assessed by determining the level of SEAP produced following overnight incubation of the cells at 37° C. with the standard compound in the presence of 0.1% (v/v) dimethylsulfoxide (DMSO). Concentration dependent induction of SEAP production by compounds was expressed as the concentration of compound which produced half of the maximal level of SEAP induction for that compound (EC50).

Recombinant human TLR7 = biological target: T2, Recombinant human TLR7 (Homo sapiens, UniProt Q9NYK1); assay: Human TLR7 assay (SEAP reporter in HEK293 cells); format: cell-based; settings: TLR7 activation, SEAP induction, overnight incubation at 37° C., 0.1% DMSO
T2 construct: expressed in transfected cells; host or cells: HEK293 cell line stably expressing the pNiFty2-SEAP reporter plasmid
T2 sequence (Q9NYK1 27-1049): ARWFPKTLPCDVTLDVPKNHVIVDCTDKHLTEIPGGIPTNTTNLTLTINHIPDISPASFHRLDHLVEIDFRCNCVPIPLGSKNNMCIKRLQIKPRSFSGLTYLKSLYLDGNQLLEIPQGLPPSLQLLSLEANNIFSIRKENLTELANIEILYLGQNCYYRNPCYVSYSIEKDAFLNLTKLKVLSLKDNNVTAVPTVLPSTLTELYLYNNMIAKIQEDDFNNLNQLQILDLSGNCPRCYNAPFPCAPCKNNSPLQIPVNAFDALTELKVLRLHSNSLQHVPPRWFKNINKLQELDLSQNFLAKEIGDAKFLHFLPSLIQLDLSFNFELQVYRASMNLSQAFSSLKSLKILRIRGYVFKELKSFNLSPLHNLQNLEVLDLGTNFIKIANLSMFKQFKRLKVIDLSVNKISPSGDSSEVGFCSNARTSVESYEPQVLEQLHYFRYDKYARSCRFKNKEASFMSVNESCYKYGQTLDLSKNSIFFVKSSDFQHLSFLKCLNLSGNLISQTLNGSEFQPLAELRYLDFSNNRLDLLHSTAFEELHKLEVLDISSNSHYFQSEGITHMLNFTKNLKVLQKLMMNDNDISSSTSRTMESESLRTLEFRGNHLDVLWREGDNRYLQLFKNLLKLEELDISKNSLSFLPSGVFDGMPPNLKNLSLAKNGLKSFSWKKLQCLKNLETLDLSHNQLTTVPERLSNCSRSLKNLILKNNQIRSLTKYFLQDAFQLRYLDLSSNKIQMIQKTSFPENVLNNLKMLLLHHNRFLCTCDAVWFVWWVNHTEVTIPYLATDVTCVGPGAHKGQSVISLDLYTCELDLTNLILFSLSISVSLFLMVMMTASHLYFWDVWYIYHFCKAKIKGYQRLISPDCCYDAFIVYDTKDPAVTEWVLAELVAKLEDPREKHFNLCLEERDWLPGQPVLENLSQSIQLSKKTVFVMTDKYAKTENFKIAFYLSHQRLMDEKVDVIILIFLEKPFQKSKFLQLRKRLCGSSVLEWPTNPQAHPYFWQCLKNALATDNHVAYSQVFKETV
Description: The ability of compounds to activate TLR7 in vitro was assessed using the human TLR7 assay described below.
Recombinant human TLR7 was stably expressed in a HEK293 cell line already stably expressing the pNiFty2-SEAP reporter plasmid; integration of the reporter gene was maintained by selection with the antibiotic zeocin. The most common variant sequence of human TLR7 (represented by the EMBL sequence AF240467) was cloned into the mammalian cell expression vector pUNO and transfected into this reporter cell-line. Transfectants with stable expression were selected using the antibiotic blasticidin. In this reporter cell-line, expression of secreted alkaline phosphatase (SEAP) is controlled by an NF-κB/ELAM-1 composite promoter comprising five NF-κB sites combined with the proximal ELAM-1 promoter. TLR signaling leads to the translocation of NF-κB and activation of the promoter results in expression of the SEAP gene. TLR7-specific activation was assessed by determining the level of SEAP produced following overnight incubation of the cells at 37° C. with the standard compound in the presence of 0.1% (v/v) dimethylsulfoxide (DMSO). Concentration dependent induction of SEAP production by compounds was expressed as the concentration of compound which produced half of the maximal level of SEAP induction for that compound (EC50).

SMILES	EC50 (full-length human TLR8) [nM]	EC50 (Recombinant human TLR7) [nM]
CCCCCNc1nc(N)nc(C)c1Cc1ccc(N2CCN(C)CC2=O)cc1OC [Example 2, 1-(4-{[2-Amino-4-methyl-6-(pentylamino)pyrimidin-5-yl]methyl}-3-methoxyphenyl)-4-methylpiperazin-2-one]	> 10000	63.1
CCC[C@@H](CCO)Nc1nc(N)nc(C)c1Cc1ccc(N2CCNCC2=O)cc1OC [Example 5, (S)-1-(4-{[2-Amino-4-(1-hydroxyhexan-3-ylamino)-6-methylpyrimidin-5-yl]methyl}-3-methoxyphenyl)piperazin-2-one]	> 10000	126

Second part, the compound after the results:

EC50 (full-length human TLR8) [nM]	EC50 (Recombinant human TLR7) [nM]	SMILES
> 10000	63.1	CCCCNc1nc(N)nc(C)c1Cc1ccc(N2CCN(C)CC2=O)cc1OC [Example 1, 1-(4-{[2-Amino-4-(butylamino)-6-methylpyrimidin-5-yl]methyl}-3-methoxyphenyl)-4-methylpiperazin-2-one]
6310	25.1	CCC[C@@H](CCO)Nc1nc(N)nc(C)c1Cc1ccc(N2CCN(C)CC2=O)cc1OC [Example 3, (S)-1-(4-{[2-Amino-4-(1-hydroxyhexan-3-ylamino)-6-methylpyrimidin-5-yl]methyl}-3-methoxyphenyl)-4-methylpiperazin-2-one]
5010	200	CCC[C@@H](CO)Nc1nc(N)nc(C)c1Cc1ccc(N2CCN(C)CC2=O)cc1OC [Example 4, (S)-1-(4-{[2-Amino-4-(1-hydroxypentan-2-ylamino)-6-methylpyrimidin-5-yl]methyl}-3-methoxyphenyl)-4-methylpiperazin-2-one]
